One may read the pIC50 as the negative decadic logarithm of the IC50, by convention in mol/L. For orientation: CC50 means the concentration giving 50% cytotoxicity.

Data set [1] deals with Leishmania donovani. Nature of the data set: Antileishmanial activity against intracellular amastigote stage of Leishmania donovani MHOM/IN/80/Dd8 expressing luciferase firefly reporter gene infected in mouse J774A1 cells after 72 hrs by luminescence assay. The format is functional, organism-based, J774.A1. The conditions noted are these: for pIC50: read-out: IC50. (A reporter such as luciferase makes a cellular process visible.)

Data set [2] can be described thus: (§1) Cytotoxicity against African green monkey Vero cells after 72 hrs by MTT assay. As to conditions: chlorocebus sabaeus, Vero cells. The format is cell-based.
A short description of data set [3]: (§2) Selectivity index, ratio of CC50 for African green monkey Vero cells to IC50 for amastigote stage of Leishmania donovani MHOM/IN/80/Dd8. The format is functional.
Data set [4] has as its system Leishmania donovani. Nature of the data set: Antileishmanial activity against extracellular promastigote stage of Leishmania donovani. In kind it is functional, organism-based.
The test system of data set [5] is Vero. Described as §2. In kind it is functional.
The subject of data set [6] is Vero. The description is as §1. The format is cell-based. As to conditions: chlorocebus sabaeus, vero, 72 h.
Where [7] appears, read: Leishmania donovani, MHOM/IN/80/Dd8, J774.A1, 72 h.

pIC50: −log10 of the molar value. A value given as a limit tells only on which side of the number the result lay.

In the case of `Cn1c2ccccc2c2nnc(SCCNc3ccnc4cc(Cl)ccc34)nc21`, the pIC50 in the data set with Leishmania donovani [1] (setting [7]) was 6.44; with Leishmania donovani [4] (Leishmania donovani), 5.20. This molecule yielded a CC50 at 72 h in data set [2] of over 400 µM. In addition, the “Ratio CC50/IC50” value in data set [3] is over 1111.

On to “SODIUM ANTIMONY GLUCONATE [listing 1 of 2 here]”, for which the Ratio CC50/IC50 in the data set on Vero [5] was over 7.

Consider `CCCCn1c2ccccc2c2nnc(SCCNc3ccnc4cc(Cl)ccc34)nc21`, for which the figures for the pIC50 with Leishmania donovani [1] (setting [7]) and in the data set with Leishmania donovani [4] (Leishmania donovani) were 4.53 and under 4.40, respectively.

As to `CCn1c2ccccc2c2nnc(SCCNc3ccnc4cc(Cl)ccc34)nc21`, the pIC50 in the data set on Leishmania donovani [1] (setting [7]) is 5.15; with Leishmania donovani [4] (Leishmania donovani), 5.04. In addition, half-maximal cytotoxicity in data set [2] (CC50 at 72 h) was put at 61.5 µM. Moreover, the “Ratio CC50/IC50” value in data set [3] was found to be 7.

On to `CCCCCCCCCCCCCCCCOP(=O)([O-])OCC[N+](C)(C)C` [MILTEFOSINE], for which the “Ratio CC50/IC50” value in data set [3] was 7. Also, in the data set with Leishmania donovani [4] (Leishmania donovani), the pIC50 was 5.96.

Consider `C=CCn1c2ccccc2c2nnc(SCCNc3ccnc4cc(Cl)ccc34)nc21`, for which the values for the negative-log IC50 (pIC50) with Leishmania donovani [1] (setting [7]) and with Leishmania donovani [4] (Leishmania donovani) were 4.99 and 5.10, respectively. The same molecule came in with a CC50 at 72 h in data set [2] of 10.5 µM. Further, in data set [3], the “Ratio CC50/IC50” value came to 1.

For `Cn1c2ccccc2c2nnc(SCCCNc3ccnc4cc(Cl)ccc34)nc21`, the IC50 entry in the data set on Leishmania donovani [1] (j774.a1) was “ND(toxic)”. The molecule further had a negative logarithm of the IC50 (pIC50) in the data set on Leishmania donovani [4] (Leishmania donovani) of 4.62.

On to `Clc1ccc2c(NCCSc3nnc4c5ccccc5n(Cc5ccccc5)c4n3)ccnc2c1`, for which, in the data set on Leishmania donovani [1] (j774.a1), the IC50 entry is given as “ND(toxic)”. For the same molecule, in the data set with Leishmania donovani [4] (Leishmania donovani), the pIC50 was 5.09.

In the case of `Cn1c2ccccc2c2nnc(SCCCCCNc3ccnc4cc(Cl)ccc34)nc21`, the IC50 entry with Leishmania donovani [1] (j774.a1) is recorded as “ND(toxic)”. The same molecule had a pIC50 in the data set with Leishmania donovani [4] (Leishmania donovani) of 4.82.

`CCn1c2ccccc2c2nnc(SCCCNc3ccnc4cc(Cl)ccc34)nc21`: in the data set with Leishmania donovani [1] (j774.a1), the IC50 entry is “ND(toxic)”. In the data set with Leishmania donovani [4] (Leishmania donovani), the pIC50 was 5.58.

As for `CC(C)n1c2ccccc2c2nnc(SCCNc3ccnc4cc(Cl)ccc34)nc21`, the pIC50 in the data set on Leishmania donovani [1] (setting [7]) is 5.54; in the data set on Leishmania donovani [4] (Leishmania donovani) it was 4.66. This molecule showed a CC50 at 72 h in data set [2] of 19.4 µM. Also, the “Ratio CC50/IC50” value in data set [3] is 7.

“SODIUM ANTIMONY GLUCONATE [listing 2 of 2 here]”: the pIC50 is 4.26 in the data set with Leishmania donovani [1] (j774.a1) and under 3.70 with Leishmania donovani [4]. For the same molecule, the CC50 with Vero [6] was over 400 µM.

As for `CCn1c2ccccc2c2nnc(SCCCCCNc3ccnc4cc(Cl)ccc34)nc21`, in the data set with Leishmania donovani [1] (j774.a1), the IC50 entry was “ND(toxic)”. Moreover, the pIC50 in the data set on Leishmania donovani [4] (Leishmania donovani) was 5.05.

On to `Cn1c2ccc([N+](=O)[O-])cc2c2nnc(SCCNc3ccnc4cc(Cl)ccc34)nc21`, for which, in the data set on Leishmania donovani [1] (j774.a1), the IC50 result was “ND(toxic)”. The same molecule had a negative logarithm of the IC50 (pIC50) in the data set on Leishmania donovani [4] (Leishmania donovani) of 5.71.

As to `Cn1c2nc(SCCNc3ccnc4cc(Cl)ccc34)nnc2c2cccc(C(F)(F)F)c21`, the negative-log IC50 (pIC50) with Leishmania donovani [1] (setting [7]) and in the data set on Leishmania donovani [4] (Leishmania donovani) was 5.19 throughout. The molecule further yielded a CC50 at 72 h in data set [2] of 39.3 µM. Further, the “Ratio CC50/IC50” value in data set [3] was 6.

Take `CC(C)Cn1c2ccccc2c2nnc(SCCNc3ccnc4cc(Cl)ccc34)nc21`: the negative-log IC50 (pIC50) with Leishmania donovani [1] (setting [7]) was 5.24; with Leishmania donovani [4] (Leishmania donovani) it was 4.77. In data set [2], this molecule displayed a cytotoxic concentration (CC50) at 72 h of 28.6 µM. In data set [3], the “Ratio CC50/IC50” value was 5.

`Clc1ccc2c(NCCCSc3nnc4c(n3)[nH]c3ccccc34)ccnc2c1`: the IC50 entry in the data set on Leishmania donovani [1] (j774.a1) is “ND(toxic)”. This molecule showed a pIC50 with Leishmania donovani [4] (Leishmania donovani) of 4.72.

As for `Cn1c2ccc(Br)cc2c2nnc(SCCNc3ccnc4cc(Cl)ccc34)nc21`, the pIC50 in the data set with Leishmania donovani [1] (setting [7]) and in the data set with Leishmania donovani [4] (Leishmania donovani) was under 4.40 in each case.

On to `Clc1ccc2c(NCCSc3nnc4c(n3)[nH]c3ccccc34)ccnc2c1`, for which the pIC50 in the data set with Leishmania donovani [1] (setting [7]) is 5.95; in the data set on Leishmania donovani [4] (Leishmania donovani) it was 5.06. The molecule also gave a CC50 at 72 h in data set [2] of 74.3 µM. Moreover, the “Ratio CC50/IC50” value in data set [3] amounted to 67.

As for `Clc1ccc2c(NCCSc3nnc4c(n3)[nH]c3ccc(Br)cc34)ccnc2c1`, in the data set on Leishmania donovani [1] (j774.a1), the IC50 entry is “ND(toxic)”. Further, the pIC50 in the data set on Leishmania donovani [4] (Leishmania donovani) is 5.15.

For `CCn1c2ccc(Br)cc2c2nnc(SCCNc3ccnc4cc(Cl)ccc34)nc21`, the pIC50 in the data set on Leishmania donovani [1] (setting [7]) and with Leishmania donovani [4] (Leishmania donovani) was under 4.40 throughout.

`CCCn1c2ccccc2c2nnc(SCCNc3ccnc4cc(Cl)ccc34)nc21`: the pIC50 in the data set on Leishmania donovani [1] (setting [7]) is 4.83; in the data set on Leishmania donovani [4] (Leishmania donovani), under 4.40. In data set [2], the 50% cytotoxic concentration (CC50) at 72 h stood at 41.7 µM. The “Ratio CC50/IC50” value in data set [3] is listed as 3.
